Assay results reported in patent publication US20240103005A1, “N-ACRYLOYLINDOLES AND METHODS OF USE” (The University of Hong Kong, priority 2022, published 2024).

Experiments:
HepG2 cells = experiment: Imaging a decrease in free thiol level in HepG2 cells under oxidative stress; format: cell-based; conditions: 10 min; for fluorescence from labeling of free thiols, solvent control cells: 50 μM, same imaging parameters; for change in cellular fluorescence intensity upon H2O2 pretreatment: H2O2 0.5 or 1 mM 15 min, probe 50 μM
Experimental: Imaging a Decrease in Free Thiol Level in HepG2 Cells Under Oxidative Stress by NAIA-5 or IAA
HepG2 cells were plated on a 8-well Nunc Lab-Tek chambered slide system and allowed to grow in complete medium at 37° C. with 5% CO2 to ca. 70% confluency. The cells were then pretreated with solvent vehicles, H2O2 (0.5 or 1 mM) or H2O2 (1 mM)+NAC (5 mM) in complete medium for 15 min at 37° C. The cells were washed with PBS and incubated with NAIA-5 or IAA (50 μM) in complete medium for 10 min at 37° C. After that, the cells were washed with PBS and fixed by 4% paraformaldehyde in PBS at room temperature for 15 min. The fixed cells were washed with PBS, permeabilized by PBS with 0.5 vol % Triton X-100 at room temperature for 30 min, washed again with PBS and incubated with a master mix solution containing CuSO4, THTPA, azide-fluor 545 and sodium ascorbate at final concentrations of 100, 500, 20 and 5000 μM respectively. After incubation in dark at room temperature for 1 h, the cells were washed with PBS and stained by Hoechst 33342 in PBS (final concentration=8.2 μM) at room temperature for 15 min. The cells were washed thrice with PBS and then imaged in PBS by confocal fluorescence microscopy.
Confocal fluorescence microscopy imaging was performed with a Zeiss laser scanning microscope 880 with a 20× water-immersion objective lens using ZEN 2.3 (Black Version) software (Carl Zeiss) with 3× magnification zoom-in. Hoechst 33342 was excited with a 405 nm diode laser, and emission was collected on a META detector between 371 and 507 nm. Fluor 545 was excited by a 561 nm diode laser and emission was collected on a META detector between 576 and 683 nm. Image analysis was performed by use of ImageJ. A region of interest (ROI) was created around individual cell, and cellular fluorescence intensity was measured. The reported average cellular fluorescence intensity was determined by averaging the measured intensity from 30 different cells from 3 different biological replicates/group. Statistical analyses were performed with a two-tailed Student's t-test (MS Excel).
These attractive features indicate the good potential of using NAIs/NAIAs to trap cellular thiols in live cells that should allow better identification of cysteine oxidative modifications. To explore this potential application, we first sought to capture and image free thiols by NAIA-5 in live HepG2 cells by confocal fluorescence microscopy (FIG. 4A). HepG2 cells were pretreated with solvent vehicles, H2O2 or H2O2+N-acetyl cysteine (NAC), where NAC can scavenge H2O2 and relieve the oxidative stress in the HepG2 cells. After the pretreatment, the cells were incubated with NAIA-5 or IAA (50 μM) for 10 min to ligand and snap-shot free cellular thiols. […]

[1] = Reaction kinetics of cysteine-reactive compounds with N-acetyl-L-cysteine methyl ester (LC-MS); format: physicochemical
Experimental: Reaction Kinetics of Cysteine-Reactive Compounds with N-Acetyl-L-Cysteine Methyl Ester
Stock solution of cysteine-reactive compound in DMSO was diluted by PBS/MeOH solution mixture (4:1, v/v; 500 μL), reaching final concentration of 10 μM. Stock solution of N-acetyl-L-cysteine methyl ester in DMSO was then freshly prepared, and added to the compound solution at final concentration of 250 μM. The solution mixture was incubated at room temperature, and at predetermined time intervals, an aliquot of the reaction mixture (10 μL) was sent for LC-MS analysis on Waters Autopurification System using a SunFire C18 HPLC column (50×4.6 mm with 5 μm diameter particles, Waters). Separation was achieved by gradient elution from 5% to 100% MeCN in water (constant 0.1 vol % formic acid) over 4 min, isocratic elution with 100% MeCN (with 0.1 vol % formic acid) from 4 to 8 min, and returning to 5% MeCN in water (with 0.1 vol % formic acid) and equilibrated for 2 min. Selected ion chromatograms, with m/z corresponding to the molecular ion of the compound and/or the adduct, were extracted and the data was analyzed using MassLynx™ software by calculating the area under the curve. The peak area was then calibrated to concentration of the compound/adduct by a set of solution mixtures containing known concentrations of the compound/adduct.
The reactivity of NAIA with cysteine in aqueous buffer solution has been investigated by LC-MS experiments (FIGS. 1A-1J). […] Upon addition of N-acetylcysteine methyl ester (250 μM), NAIA-5 reacted quickly and completely with N-acetylcysteine methyl ester within […], as reflected by the diminishment of the peak of NAIA-5 at t=6.20 min with a concomitant growth of a new peak at t=5.60 min in the LC, which is attributable to the cysteine adduct of NAIA-5 based on the MS (FIGS. 1B-1G). […] This highlights the important contribution of aromaticity of indole scaffold to increase electrophilicity of acrylamide warhead for fast and complete cysteine reaction in aqueous buffer solution.
Next, we monitored the reaction between NAIA-amide (10 μM) and N-acetylcysteine methyl ester (250 μM) by LC-MS analysis (FIG. 17A). Complete conversion of NAIA-C5 amide was observed within 40 s as indicated by the disappearance of NAIA-C5 amide peak (t=5.09 min) and emergence of the adduct peat (t=4.80 min) in the LC trace (FIG. 17B). Likewise, the reaction of NAIA-C4 amide proceeded with fast kinetics and was completely consumed in 1 min (FIG. 17C). The calculated rate constant of NAIA-C5 amide and NAIA-C4 amide were 2-fold and 1.2-fold faster than NAIA (FIG. 17D). […] Owning to the excellent reaction rate of NAIA-C5 amide, it was taken forward for further comparative analysis in subsequent experiments.

[2] = compound 10 μM, N-Ac-Cys-OMe 250 μM, PBS/MeOH 4:1

| SMILES | fluorescence from labeling of free thiols, solvent control cells (HepG2 cells) | change in cellular fluorescence intensity upon H2O2 pretreatment (HepG2 cells) | reaction kinetics with cysteine (k) ([1]; FIG. 7 legend summary) | cysteine reaction rate (in words) ([1]; compound 10 μM, N-Ac-Cys-OMe 250 μM) | compound left unreacted [1, 2] | time to complete reaction with N-acetylcysteine methyl ester [1, 2] |
| --- | --- | --- | --- | --- | --- | --- |
| C#CCCCCNC(=O)CI [IAA, N-Hex-5-ynyl-2-iodoacetamide, reference compound] | almost no fluorescence can be detected in IAA-labeled cells | cannot see statistically significant changes in fluorescence intensity | ~10^0 M^−1 s^−1 | react much slower with cysteine than our NAIAs | more than 40% |  |
| C#CCCCCNC(=O)COc1ccc2c(ccn2C(=O)C=C)c1 [NAIA-5] | strong fluorescence from NAIA-5 labeling | H2O2 dose-dependent decrease in cellular fluorescence intensity |  |  |  | ≤ 300 s |
